For the assay, the system named is Staphylococcus aureus. As to the kind of experiment: criss-cross MIC method in nutrient broth (Example 2). The class given is cell-based. To be noted: 2nd substance chloramphenicol (CLM). Here is the method:
This method involved the simultaneous determination of the MIC (minimum inhibitory concentration) of each member of a pair of antibiotics and of combinations of the two in nutrient broth (NB) containing 0.2% yeast extract (YE). Serial two-fold dilutions were made throughout the experiment, and the starting inoculum consisted of approximately 25,000 cells/ml. of Staphylococcus aureus. Incubation was at 37°C. for 24 hours. Identical experiments were performed on two different days.

Where “and” joins values, the source holds several entries; their conditions need not be identical. Equal entries are not always repeated.

As for `C[C@@H]1O[C@@H]1P(=O)(O)O` [Phosphonomycin, (-) (cis-1,2-epoxypropyl)phosphonic acid], the “Phosphonomycin MIC in presence of MIC/4 of 2nd subst.” value is 15.6 µg/mL and 7.8 µg/mL.

The values above are taken from patent US3935309A, “Synergistic combinations of phosphonomycin and bacteriostatic agents” (Merck & Co., Inc., priority 1974, dated 1976).
